Here are results for three molecules from paper PMC10004634 (PLOS ONE, 2023).

The experiment relates to TMD8 cells. Description: RT-qPCR of IRF4, BCL6, MYC mRNA. Format: cell-based, human. The conditions noted are these: 24 h, tirabrutinib 1 μM, BMS-345541 10 μM, MK-2206 1 μM, refametinib 0.1 μM. The method, then: After culturing, total RNA was isolated from cells using the RNeasy Plus Mini Kit (Qiagen), then cDNA was prepared from total RNA using the SuperScript VILO cDNA Synthesis Kit (Invitrogen) following the kit instructions. For quantification of each mRNA expression level, PCR was performed using TaqMan Fast Universal PCR Master Mix (Thermo Fisher Scientific) under the following conditions with the AriaMx Real Time PCR System (Agilent Technologies): 95°C for 3 min, followed by 40 cycles at 95°C for 5 s and 60°C for 20 s with continuous fluorescence measurement. All PCRs were performed in triplicate, and the mRNA expression of GAPDH was used as an internal control. The results (fold changes of the threshold cycle [Ct] relative to the control group) were obtained using the 2^−ΔΔCt method. The TaqMan probes for IRF4 (Assay ID: Hs00180031_m1), BCL6 (Assay ID: Hs00153368_m1), MYC (Assay ID: Hs00153408_m1), and GAPDH (Assay ID: Hs02786624_g1) were purchased from Thermo Fisher Scientific. Statistical tests were performed with the SAS 9.4 (SAS Institute Japan Ltd., Tokyo, Japan) TS1M4-based EXSUS system version 10.1.3 (CAC Corporation, Tokyo, Japan). The t-test or Dunnett test was used to compare mRNA expression in the DMSO- and compound-treated groups. The statistical tests were two-sided with a 5% significance level.

Molecules are shown by their SMILES. “Also recorded” adds a separate entry of the source.

`NC1(c2ccc(-c3nc4ccn5c(=O)[nH]nc5c4cc3-c3ccccc3)cc2)CCC1` [MK-2206]: the “IRF4 mRNA expression” value is on record as “did not downregulate” and the “MYC mRNA expression” value is listed as “did not downregulate”.

Take `Cc1ccc2nc(NCCN)c3ncc(C)n3c2c1` [BMS-345541]: the “IRF4 mRNA expression” value is reported as “significant downregulation; also recorded: strongly inhibited” and the “MYC mRNA expression” value was “significant downregulation; also recorded: strong inhibition”.

In the case of `COc1cc(F)c(F)c(Nc2ccc(I)cc2F)c1NS(=O)(=O)C1(C[C@H](O)CO)CC1` [refametinib], the “MYC mRNA expression” value is “tended to downregulate; also recorded: partially downregulated”.
